From ChEMBL document CHEMBL4680202, “Development, synthesis and biological investigation of a novel class of potent PC-PLC inhibitors” (Eur J Med Chem, 2020)

tested on: Bacillus cereus; experiment: Inhibition of Bacillus cereus PC-PLC assessed as residual activity at 10 uM using phosphatidylcholine as substrate measured after 1 hr by horseradish peroxidase/alkaline phosphatase/choline oxidase-coupled amplex red reagent based fluorescence assay relative to control; conditions: not given

| Structure (SMILES) | Activity [%] |
| --- | --- |
| S=C([S-])OC1CC2CC1C1CCCC21.[K+] (centres undefined) | 40.3 |
| Fc1ccccc1CNc1ccc(N2CCOCC2)cc1 | 0 |
| O=C(O)c1cc(NCc2cccc(Cl)c2)ccc1N1CCOCC1 | 10.7 |
| Clc1cccc(CNc2ccc(N3CCOCC3)cc2)c1 | 9.1 |
| CC(C)(C)OC(=O)N1CCN(c2ccc(NCc3ccccc3F)cc2)CC1 | 29.4 |
| COC(=O)c1cc(NCc2cccc(Br)c2)ccc1N1CCOCC1 | 60.9 |
| COC(=O)c1cc(NCc2ccc(-c3ccccc3)cc2)ccc1N1CCOCC1 | 100 |
| O=C(O)c1cc(NCc2ccccc2)ccc1N1CCOCC1 | 32.5 |
| O=C(O)c1cc(NCc2cccc(O)c2)ccc1N1CCOCC1 | 41.6 |
| Cc1ccccc1CNc1ccc(N2CCOCC2)cc1 | 2.2 |
| O=C(O)c1cc(NCc2cccc(Br)c2)ccc1N1CCOCC1 | 20.4 |
| Clc1ccccc1CNc1ccc(N2CCCCC2)cc1 | 22.6 |
| Fc1ccc(CNc2ccc(N3CCOCC3)cc2)cc1 | 1.8 |
| CN1CCN(c2ccc(NCc3cccc(F)c3)cc2)CC1 | 44.2 |
| Clc1ccc(CNc2ccc(N3CCCCC3)cc2)cc1 | 23 |
| CC(C)(C)OC(=O)N1CCN(c2ccc(NCc3cccc(O)c3)cc2)CC1 | 18.4 |
| Cc1cc(C)c(CNc2ccc(N3CCOCC3)c(C(=O)O)c2)c(C)c1 | 45.3 |

Results, then the compound that gave them:

| Activity [%] | Structure (SMILES) |
| --- | --- |
| 3.2 | COc1ccc(CNc2ccc(N3CCOCC3)cc2)cc1 |
| 35 | Cc1ccccc1CNc1ccc(N2CCOCC2)c(C(=O)O)c1 |
| 49.5 | O=C(O)c1cc(NCc2cccc(F)c2)ccc1N1CCOCC1 |
| 28.9 | Cc1cc(C)c(CNc2ccc(N3CCOCC3)cc2)c(C)c1 |
| 19.5 | CN1CCN(c2ccc(NCc3cccc(Cl)c3)cc2)CC1 |
| 48.9 | COC(=O)c1cc(NCc2ccc(F)cc2)ccc1N1CCOCC1 |
| 24.1 | Fc1ccccc1CNc1ccc(N2CCNCC2)cc1 |
| 96.8 | COC(=O)c1cc(NCc2c(C)cc(C)cc2C)ccc1N1CCOCC1 |
| 54.3 | COC(=O)c1cc(NCc2ccc(C)cc2)ccc1N1CCOCC1 |
| 23.7 | Cc1cccc(CNc2ccc(N3CCOCC3)c(C(=O)O)c2)c1 |
| 9.9 | COc1ccccc1CNc1ccc(N2CCCCC2)cc1 |
| 73.1 | COC(=O)c1cc(NCc2ccccc2Cl)ccc1N1CCOCC1 |
| 58.4 | COC(=O)c1cc(NCc2ccccc2C)ccc1N1CCOCC1 |
| 56.7 | COC(=O)c1cc(NCc2ccccc2Br)ccc1N1CCOCC1 |
| 43.7 | COC(=O)c1cc(NCc2ccccc2OC)ccc1N1CCOCC1 |
| 42.7 | CN1CCN(c2ccc(NCc3ccccc3F)cc2)CC1 |
| 32.2 | Cc1ccccc1CNc1ccc(N2CCN(C(=O)OC(C)(C)C)CC2)cc1 |
| 6.1 | Fc1cccc(CNc2ccc(N3CCOCC3)cc2)c1 |
| 8.1 | c1ccc(CNc2ccc(N3CCCCC3)cc2)cc1 |
| 40 | O=C(O)c1cc(NCc2ccccc2O)ccc1N1CCOCC1 |
| 32.3 | COc1ccc(CNc2ccc(N3CCOCC3)c(C(=O)O)c2)cc1 |
| 40.4 | O=C(O)c1cc(NCc2ccccc2Br)ccc1N1CCOCC1 |

target: not listed separately; experiment: Inhibition of Bacillus cereus PC-PLC using phosphatidylcholine as substrate measured after 1 hr by horseradish peroxidase/alkaline phosphatase/choline oxidase-coupled amplex red reagent based fluorescence assay; conditions: not given

| IC50 [µM] | Ki [µM] | Structure (SMILES) |
| --- | --- | --- |
| 8.08 | 6.4 | S=C([S-])OC1CC2CC1C1CCCC21.[K+] (centres undefined) |
| 1.06 | – | Fc1ccccc1CNc1ccc(N2CCOCC2)cc1 |
| 3.6 | – | O=C(O)c1cc(NCc2cccc(Cl)c2)ccc1N1CCOCC1 |

tested on: MDA-MB-231; experiment: Cytotoxicity against human MDA-MB-231 cells assessed as reduction in cell proliferation measured at 50 ug/ml measured after 48 to 72 hrs by trypan blue exclusion assay relative to control; assay type: functional; parameters: scale not given: the % may be the effect or the level left; conditions: dose 50 µg/ml; time 48-72 hrs

| Structure (SMILES) | Activity [%] |
| --- | --- |
| S=C([S-])OC1CC2CC1C1CCCC21.[K+] (centres undefined) | 60 |
